Source: US20210244728A1, “Method of treating peripheral neuropathy” (Chemedest Ltd., priority 2012, published 2021)

Tests used:
sciatic-ligated rats = assay: Von Frey test in Bennett model (chronic constrictive injury of the sciatic nerve) of neuropathic pain; assay type: in vivo, Male Sprague Dawley rats
Text: The study was designed to evaluate the analgesic efficacy of compound XV (CHM-65) in the Bennett model of neuropathic pain.
Male Sprague Dawley rats (100-125 g) from Harlan (Indianapolis, Ind.) were used in the study. Upon receipt, rats were assigned unique identification numbers and were group housed with 3 rats per cage in polycarbonate cages with micro-isolator filter tops. All rats were examined, handled, and weighed prior to initiation of the study to assure adequate health and suitability. During the course of the study, 12/12 light/dark cycles were maintained, with lights on at 7:00 am EST. The room temperature was maintained between 20 and 23° C. with a relative humidity maintained around 50%. Chow and water were provided ad libitum for the duration of the study. […]
This surgery was performed according to Bennett and Xie (1988). […] Each rat was monitored until awake and moving freely around the recovery chamber. […]
Withdrawal from a mechanical stimulus was measured by applying von Frey (VF) filaments of ascending bending force to the plantar surface of the hind paws (ipsilateral and contralateral). […]
Data were analyzed by one-way analysis of variance (ANOVA) followed by Fisher PLSD post-hoc comparisons. […]

[1] = system: spinal nerve-ligated rats; assay: Von Frey test in Chung model (spinal nerve ligation) of neuropathic pain; assay type: in vivo; conditions: for Signs of sedation or toxicity: during pretreatment or testing
Text: The study was designed to evaluate the analgesic efficacy of test compounds in the rat Chung model of neuropathic pain.
Male Sprague Dawley rats (100-125 g) from Harlan (Indianapolis, Ind.) were used in the study. Upon receipt, rats were assigned unique identification numbers and were group housed with 3 rats per cage in polycarbonate cages with micro-isolator filter tops. All rats were examined, handled, and weighed prior to initiation of the study to assure adequate health and suitability. During the course of the study, 12/12 light/dark cycles were maintained, with lights on at 7:00 am EST. The room temperature was maintained between 20 and 23° C. with a relative humidity maintained around 50%. Chow and water were provided ad libitum for the duration of the study.
Reference compound: Gabapentin (100 mg/kg; TRC, Lot No. 1-SWM-154-1) was dissolved in saline and administered acutely on test day (day 8 or 12) 1 hour prior to testing, at a dose volume of 1 ml/kg, p.o.
Test compounds: CHM-65 (5, 15 and 25 mg/kg, Q.D., Lot n/a) was dissolved in sterile injectable saline and administered subcutaneously on days 1, 3, 5 and 8 with the first administration (day 1) occurring 1 hour post-op. On day 8, compound was administered 1 hour prior to testing. The dose volume was 3 ml/kg.
CHM-36 (20 mg/kg, Q.D., Lot n/a) was dissolved in sterile injectable saline and administered subcutaneously on days 1, 3, 5 and 8 with the first administration (day 1) occurring 1 hour post-op. On day 8, compound was administered 1 hour prior to testing. The dose volume was 5 ml/kg.
Artemin (CHMB-1) (0.5 mg/kg, Q.D., Lot n/a) was administered subcutaneously on days 1, 3, 5, 8, 10 and 12 with the first administration (day 1) occurring 1 hour post-op. On day 12, compound was administered 1 hour prior to testing. The dose volume was 0.5 ml/kg.
Under general anesthesia with continuous inhalation of isoflurane, surgery was performed with aseptic procedures in surgery unit. Sterile ophthalmic ointment was used to lubricate the eyes. Animals were observed continuously for the level of anesthesia, testing for the animal's reflex response to tail or paw pinch and closely monitoring the animal's breathing. A heating pad was used to maintain body temperature at 37° C. while the animals recovered from anesthesia. The skin at the area of the lower lumber and sacral level of the rat was shaved and disinfected with betadine and alcohol. A left longitudinal incision at the level next to the vertebral column was made and the left paraspinal muscles were separated. The transverse process of L6 was removed and nearby connective tissue cleaned to expose L5 and L6 spinal nerves. After the nerves were isolated and clearly visualized, 4-0 silk threads were used to ligate the left L5. The muscles were sutured with 4-0 silk threads and the wound closed by staples. All rats received an analgesic (buprenorphine, 0.05 mg/kg, s.c.) immediately before and 6 hours after surgery. Each rat was monitored until awake and moving freely around the recovery chamber. Animals were then single-housed for the duration of the study. Rats began their chronic-treatment regimen (all test groups except gabapentin) 1 hour post-op on surgery day.
Withdrawal from a mechanical stimulus was measured by applying von Frey (VF) filaments of ascending bending force to the plantar surface of the hind paws (ipsilateral and contralateral). A positive response was defined as withdrawal from the von Frey filament. […]

[2] = system: peripheral neuron populations (dorsal root, trigeminal, nodose, superior cervical ganglia) and cultured fetal ventral mesencephalic DA neurons; conditions: cited from earlier work
animals = conditions: systemic administration in animals; cited from earlier work
[3] = system: rats with SNL (spinal nerve ligation); conditions: repeated injection; cited from earlier work

Row | Molecule | Signs of sedation or toxicity (sciatic-ligated rats; during pretreatment or testing, Bennett model study) | ipsilateral paw withdrawal threshold compared to vehicle (sciatic-ligated rats; gabapentin 100 mg/kg p.o., acute on day 12, 1 hour prior to testing, FIG. 3) | Signs of sedation or toxicity ([1]; CHM-36 study) | Signs of sedation or toxicity ([1]; artemin study) | ipsilateral paw withdrawal threshold compared to vehicle ([1]; gabapentin 100 mg/kg p.o., acute on test day, 1 hour prior to testing, CHM-36 study, FIG. 5) | ipsilateral paw withdrawal threshold compared to vehicle ([1]; gabapentin 100 mg/kg p.o., acute on test day, 1 hour prior to testing, artemin study, FIG. 7) | survival of peripheral neuron populations and cultured fetal ventral mesencephalic DA neurons [2] | restoration of nociceptive and sensorimotor functions (animals) | behavioral responses to light touch and noxious thermal stimuli [3] | behavioral signs of toxicity [3] | ipsilateral paw withdrawal threshold compared to vehicle ([1]; 0.5 mg/kg s.c. on days 1, 3, 5, 8, 10 and 12, tested day 12, 1 hour after administration, FIG. 7)
1 | NCC1(CC(=O)O)CCCCC1 [gabapentin, Gabapentin] | not observed | significantly increased | not observed | not observed | significantly increased | significantly increased | – | – | – | – | –
2 | CHMB-1: GDNF family ligand artemin (ARTN), neurotrophic factor signalling through GFR α 3/RET | – | – | – | – | – | – | promote the survival | essentially complete and persistent restoration | dose-dependent normalization | without producing behavioral signs of toxicity | significantly increased
